What is called GI50 is the concentration that inhibits growth by half. A higher GI50 goes with lower sensitivity of the cells.

For test [1], the system named is HT1080-TfR1KD cells. In words: Drug sensitivity after shRNA knockdown of TfR1. It is filed as cell-based, human. The settings on record: alamar blue. As for the experimental part:
On day one, 3×10^5 Calu-1 cells or 2×10^5 HT1080 cells were seeded in 10-cm dishes; on day 2, frozen virus stock was thawed at 37° C., hexadimethrine bromide (polybrene) (Sigma, cat.#H9268) was added to the virus solution at a final concentration of 8 μg/mL and growth media from cell culture was replaced with the virus/polybrene mixture. The culture was returned to the tissue culture incubator for 2 hours, with rocking of the dishes every 30 min in order to prevent drying. After 2 h, 10 mL growth medium was added, the culture was incubated for 2 days, and cells stably expressing shRNA were selected by adding puromycin (Sigma, cat.#P9620) at a final concentration of 1.5 μg/mL.
On the day of experiment, assay plates were prepared by seeding 3,000 HT1080, HT1080-pLKO, HT1080-TfR1 KD, Calu-1, Calu-1-pLKO, or Calu-1-509 cells per well in 36 μL of growth media to black, clear bottom 384-well plates. Also, assay plates were prepared by seeding 1,500 shRNA infected HT1080 or Calu-1 cells per well. Cells in assay plates were treated with each lethal compound in a 2-fold dilution series by transferring 4 μL solution from a 10× lethal plate of Erastin, Compound 3, Compound 27, or Compound 36. […] Percent growth inhibition (% GI) was calculated using fluorescence intensity values.
In general terms: Alamar Blue is a resazurin reagent that responds to reducing activity.

Test [2] deals with PARP-1 cleavage in BJ-TERT/LT/ST/RAS^V12 cells. In words: Western blot of PARP-1 cleavage upon compound treatment. The settings on record: Western blot with anti-PARP-1 antibody. The class given is cell-based, human. As for the experimental part:
2×10^6 BJ-TERT/LT/ST/RAS^V12 cells were seeded in 10 cm dishes and treated with 1 μM staurosporine, 10 μg/mL erastin, 20 μg/mL Compound 3, and 1 μg/mL Compound 27 for 16 h. Both dying cells and live cells in each 10 cm dish were harvested and collected in the same 15 mL tubes by centrifuging cell suspension at 1,000 rpm for 5 min. Cell pellets were washed three times with PBS and cells were lysed in 200 μL of denaturing lysis buffer (50 mM HEPES KOH [pH 7.4], 40 mM NaCl, 2 mM EDTA, 1.5 mM Na3VO4, 50 mM NaF, 10 mM sodium pyrophosphate, 10 mM sodium β-glycerophosphate, 0.5% Triton X-100, and protease inhibitor tablet [Roche, cat.#11836170001]). Protein content was quantified using a Bio-Rad protein assay reagent (Bio-Rad, cat.#500-00006). Equal amounts of protein were resolved on SDS-polyacrylamide gels. The electrophoresed proteins were transblotted onto a PVDF membrane, blocked with 5% milk, and incubated with rabbit primary antibodies specific to: PARP (Santa Cruz, cat.#sc-7150), cleaved caspase-3 (Cell Signaling Technology, cat.#9661) overnight at 4° C. The membrane was then incubated in IRDye 800 goat anti-rabbit antibody (Li-cor Bioscience cat.#926-32211) at 1:3,000 dilutions for 45 min at room temperature. After washing off the unbound antibodies, membranes were scanned using the Odyssey™ Imaging System (Li-cor Bioscience).
(In general: A western blot detects proteins with antibodies after separation by electrophoresis.)

The test system of test [3] is CAKI-1. In words: NCI60 anti-cancer screening. The following applies: for GI 100% / GI50: CAKI-1; for GI 100%: Renal Cancer; for GI50 / CC50: Homo sapiens; for CC50: CAKI-1, read-out: LC 50%.
Test [4] has as its system U251. In words: NCI60 anti-cancer screening. The following applies: for GI50 / CC50: Homo sapiens; for GI50: U-251; for CC50: U-251, read-out: LC 50%; for GI 100%: U251, CNS Cancer.
Test [5] concerns EKVX. In words: NCI60 anti-cancer screening. The following applies: for GI50 / CC50: Homo sapiens; for CC50: read-out: LC 50%; for GI 100%: Non-small cell lung carcinoma.
Test [6] concerns OVCAR-5. In words: NCI60 anti-cancer screening. The following applies: for GI50 / CC50: Homo sapiens; for GI50 / GI 100%: OVCAR-5; for CC50: OVCAR-5, read-out: LC 50%; for GI 100%: Ovarian Cancer.
Test [7] has as its system SK-OV-3. In words: NCI60 anti-cancer screening. The settings on record: for GI50 / CC50: Homo sapiens; for GI50 / GI 100%: SK-OV-3; for CC50: SK-OV-3, read-out: LC 50%; for GI 100%: Ovarian Cancer.
For test [8], the system named is NCI-H322M. Put plainly: NCI60 anti-cancer screening. The settings on record: for GI50 / CC50: Homo sapiens; for CC50: read-out: LC 50%; for GI 100%: Non-small cell lung carcinoma.
In test [9] the test system is SF-295. In words: NCI60 anti-cancer screening. The settings on record: for GI50 / CC50: Homo sapiens; for GI50 / GI 100%: SF-295; for CC50: SF-295, read-out: LC 50%; for GI 100%: CNS Cancer.
For test [10], the system named is HCT-15. Put plainly: NCI60 anti-cancer screening. The settings on record: for GI 100% / GI50: HCT-15; for GI 100%: Colon Cancer; for GI50 / CC50: Homo sapiens; for CC50: HCT-15, read-out: LC 50%.
Test [11] relates to NCI-H226. Put plainly: NCI60 anti-cancer screening. The settings on record: for GI50 / CC50: Homo sapiens; for GI50 / GI 100%: NCI-H226; for CC50: NCI-H226, read-out: LC 50%; for GI 100%: Non-small cell lung carcinoma.
In test [12] the test system is HCC-2998. Put plainly: NCI60 anti-cancer screening. The settings on record: for GI 100%: HCC-2998, Colon Cancer; for GI50 / CC50: Homo sapiens; for GI50: HCC 2998; for CC50: HCC 2998, read-out: LC 50%.
Test [13] concerns BJ-TERT/LT/ST/RAS^V12 cells. In words: Effect of cell cycle inhibitors on Compound 36-induced cell death. The class given is cell-based, human. The settings on record: apigenin, monastrol, olomoucine, nocodazole, hydroxyurea, colchicine, rapamycin. As for the experimental part:
BJ-TERT/LT/ST/RAS^V12 cells were seeded in a 384-well assay plate at a concentration of 4,000 cells per well in 32 μL culture volume. Cells were treated with cell cycle inhibitors by transferring 4 μL of 500 μM apigenin (Sigma, cat.#A3145), 1.5 mM monastrol (Sigma, cat.#M8515), 1 mM olomoucine (Sigma, cat.#00886), 2 μM Nocodazole (Sigma, cat.#M1404), 6 mM Hydroxy-urea (Sigma, cat.#H8627), 0.1 μM colchicine (Sigma, cat.#D6165), or 50 μM Rapamycine (Sigma, cat.#RO395) in growth media to the assay plate. […] The assay plate was incubated for 24 hours and alamar blue was added to the assay plate at a final concentration of 10%.

SMILES strings stand for the structures.

Take `COCCOC(=O)C1=C(C)NC2=C(C(=O)CC(c3ccc(Cl)cc3)C2)C1c1ccccc1F` (centres unmarked) [Compound 3]: the “sensitivity of HT1080-TfR1KD cells compared with parental HT1080” value in [1] is recorded as “decreased sensitivity”. Further, the “PARP-1 cleavage / type of cell death” value in test [2] is “activate a non-apoptotic pathway”.

`COC(=O)c1ccc(C2c3[nH]c4ccccc4c3CC(C(=O)OC)N2C(=O)CCl)cc1` (centres unmarked) [Compound 27]: the “GI 100%” value in [3] was 0.0381 µM; in test [4], 2.3 µM; in [5], 5.63 µM; in test [6] it was 5.71 µM; in [7], 3.34 µM; in test [8] it was more than 10 µM. Besides, the “GI 100%” value in [9] turned out to be 2.97 µM; in test [10], 2.83 µM; in [11], 2.79 µM; in test [12], 5.1 µM. Also, the GI50 was found to be 21.1 nM in [3]; 1100 nM in [4]; 2310 nM in test [5]; 2240 nM in test [6]; 1680 nM in test [7]; 3600 nM in [8]. For the same compound, the GI50 in test [9] came out at 1100 nM; in [10], 1450 nM; in test [11] it was 688 nM; in [12], 2010 nM. The CC50 is 68.7 nM in test [3]; 4790 nM in [4]; more than 10000 nM in test [5]; more than 10000 nM in [6]; 6670 nM in [7]; more than 10000 nM in test [8]. For the same compound, the CC50 in test [9] was 8060 nM; in test [10], 5540 nM; in [11] it was more than 10000 nM; in test [12] it was more than 10000 nM. Moreover, the “PARP-1 cleavage / type of cell death” value in test [2] is “activate a non-apoptotic pathway”.

On to `C=C1CCC2C(C)(C)CCC[C@]2(C)C1CC/C(C)=C\CC/C(C)=N/NC(N)=S` (some centres unmarked) [Compound 36], for which the “effect of cell cycle blockers on compound-induced cell death” value in test [13] is given as “None of cell cycle blockers were effective”. Besides, the “GI 100%” value is 0.413 µM in test [3]; 1.7 µM in test [4]; 2.51 µM in test [5]; 1.62 µM in test [6]; 2.56 µM in [7]; 1.99 µM in test [8]. Also, the “GI 100%” value was 2.52 µM in test [9], 1.53 µM in [10], 1.66 µM in [11] and 0.733 µM in [12]. Also, the GI50 was 165 nM in [3]; 470 nM in [4]; 1240 nM in test [5]; 492 nM in [6]; 1260 nM in [7]; 606 nM in [8]. The GI50 in [9] is 1190 nM; in test [10], 305 nM; in test [11] it was 480 nM; in test [12], 240 nM. Further, the CC50 in test [3] amounted to 1080 nM; in test [4] it was 4120 nM; in test [5], 5090 nM; in [6] it was 4330 nM; in test [7] it was 5200 nM; in test [8] it was 4930 nM. Also, the CC50 in test [9] amounted to 5330 nM; in test [10], 3930 nM; in test [11], 4550 nM; in [12], 2680 nM. The “sensitivity of HT1080-TfR1KD cells compared with parental HT1080” value in [1] was “decreased sensitivity”.

Source of the values: patent publication US8546421B1, “Oncogenic-RAS-signal dependent lethal compounds” (The Trustees of Columbia University in the City of New York, priority 2007, dated 2013).
